Test results as given in patent US6576261B1, “Potentiation of inclusion complex formation of cyclodextrin derivatives” (priority 1999, dated 2003).
Read-outs that look alike come from different tables or passages of the source.

What was measured:
Assay type in all cases: physicochemical
[1] = Solubility of TRIMEA and DIMEB and complex formation between the two hosts in absence of a guest
Experimental: TRIMEA and DIMEB dissolve in water more than 33 g per 100 ml of water. The solubilities of both these compounds in water can be decreased by the addition of salts or by an increase of temperature. Thus, in aqueous solution of sodium sulfate (1 M), TRIMEA dissolved to the saturation concentration just of 0.4 mg/ml and DIMEB to 3.4 mg/ml. […] If a 1:1 complex between TRIMEA and DIMEB is assumed to form, the association constant of 700 [1/M] can be estimated for that complex, which is of the same order of magnitude as association constants of many complexes formed of guests and cyclodextrins.

[2] = Preparation and stabilization of colloidal compositions of calcium fluoride; settings: alone or in combination with TRIMEA; precipitation from calcium chloride and sodium fluoride
[3] = target: insulin (Homo sapiens, UniProt P01308); experiment: Stabilization and solubilization of insulin by highly methylated cyclodextrins; settings: cyclodextrins at 2 or 4% in phosphate buffered solution, insulin 1 mg/ml, final pH less than 6
Chain of insulin (P01308 25-54 limits assumed, species assumed): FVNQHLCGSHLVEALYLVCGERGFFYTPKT
Chain of insulin (P01308 90-110 limits assumed, species assumed): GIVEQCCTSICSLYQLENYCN

saturation concentration ([1]; aqueous solution of sodium sulfate (1 M)) | preparation and stabilization of colloidal compositions of calcium fluoride [2] | saturation concentration [1] | SMILES | stabilizer of the dissolved insulin [3]
3.4 mg/mL | effective |  | COC[C@H]1O[C@@H]2O[C@H]3[C@H](O)[C@@H](OC)[C@@H](O[C@H]4[C@H](O)[C@@H](OC)[C@@H](O[C@H]5[C@H](O)[C@@H](OC)[C@@H](O[C@H]6[C@H](O)[C@@H](OC)[C@@H](O[C@H]7[C@H](O)[C@@H](OC)[C@@H](O[C@H]8[C@H](O)[C@@H](OC)[C@@H](O[C@H]1[C@H](O)[C@H]2OC)O[C@@H]8COC)O[C@@H]7COC)O[C@@H]6COC)O[C@@H]5COC)O[C@@H]4COC)O[C@@H]3COC [DIMEB] | 
 |  | 0.4 mg/mL | COC[C@H]1O[C@@H]2O[C@@H]3[C@@H](OC)[C@@H](OC)[C@@H](O[C@@H]4[C@@H](OC)[C@@H](OC)[C@@H](O[C@@H]5[C@@H](OC)[C@@H](OC)[C@@H](O[C@@H]6[C@@H](OC)[C@@H](OC)[C@@H](O[C@@H]7[C@@H](OC)[C@@H](OC)[C@@H](O[C@@H]1[C@@H](OC)[C@H]2OC)O[C@@H]7COC)O[C@@H]6COC)O[C@@H]5COC)O[C@@H]4COC)O[C@@H]3COC [TRIMEA] | more effective stabilizer of the dissolved insulin than DIMEB or TRIMEB
